The record followed here is US20240268388A1, “AGRICULTURAL AND HORTICULTURAL FUNGICIDAL COMPOSITION” (NIPPON SODA CO., LTD., priority 2021, published 2024).

Assay [1] has as its system soybean rust pathogen (Phakopsora pachyrhizi). Nature of the assay: Soybean rust control test (leaf discs). Format: in vivo. As for the experimental part:
Compounds of component (I) and component (II) were dissolved in dimethyl sulfoxide and diluted with water to the prescribed concentration to prepare a chemical agent solution. A mixture of the prescribed concentration of the chemical agent solution and sterile water was prepared on a microplate, and leaf discs cut from soybean leaves were floated on the microplate. Uredospores of soybean rust pathogen (Phakopsora pachyrhizi) were inoculated and incubated at 25° C. for 9 days. The area percentage of lesions was determined by observing uredospore-forming lesions on the leaf discs, and the control value was calculated. The control value was calculated by the following formula:
Control value (%)=100−{Area percentage of lesions in treatment plot/Area percentage of lesions in untreatment plot}×100.
The results are shown in Tables 8 to 18, along with the expected values calculated as below. Each expected values was calculated from the fungicidal efficacy of a single application of compound of component (I) and the fungicidal efficacy of a single application of compound of component (II) by using Colby's equation:
[formula] • where E represents the expected value of the control value for the composition containing component (I) and component (II), M represents the control value (%) when the component (I) is used alone, and N represents the control value (%) when the component (II) is used alone. When the measured control value for the composition containing component (I) and component (II) is greater than the expected value E, the composition containing component (I) and composition (II) should exert a synergistic effect.

The subject of assay [2] is wheat leaf blight pathogen (Septoria tritici). Nature of the assay: Fungicidal test for wheat leaf blight (microplate, turbidity at 405 nm). Format: cell-based. As for the experimental part:
Compounds of component (I) and component (II) were dissolved in dimethyl sulfoxide at 10,000 ppm and diluted with water to the prescribed concentration to prepare a chemical agent solution. A mixture of the prescribed concentration of the chemical agent solution, wheat leaf blight pathogen (Septoria tritici) conidia, and malt extract was prepared on a microplate and incubated at 20° C. in the dark for 3 days. The turbidity at a wavelength of 405 nm was measured with a microplate reader, and the growth of wheat leaf blight pathogen was compared with that of no treatment control to determine the growth inhibition rate. The results are shown in Tables 2 to 7, along with the expected values calculated as below.
Each expected value was calculated from the fungicidal efficacy of a single application of the compound of component (I) and the fungicidal efficacy of a single application of compound of component (II) by using Colby's equation (S. R. Colby, Calculating synergistic and antagonistic responses of herbicide combinations, Weeds, 15, 20-22 pp (1967)).
[formula] • where E represents the expected value of the growth inhibition rate (%) for the composition containing component (I) and component (II), M represents the growth inhibition rate (%) when the component (I) is used alone, and N represents the growth inhibition rate (%) when the component (II) is used alone. When the measured growth inhibition rate (%) for the composition containing component (I) and component (II) is greater than the expected value E, the composition containing components (I) and component (II) should exert a synergistic effect.

Setting [3] is: Table 14, component (II) alone (component (I): None): Inpyrfluxam 0.00025, Chlorothalonil 0.006, Thiophanate-methyl 0.0001, Tebuconazole 0.000025, Trifloxystrobin 0.0001, Fluazinam 0.006, Prothioconazole 0.000025, Florylpicoxamid 0.0001, Metominostrobin 0.0004 ppm.
The mark [4] stands for this setting: Table 15, component (II) alone (component (I): None): Azoxystrobin 0.0001, Inpyrfluxam 0.000025, Chlorothalonil 0.0063, Difenoconazole 0.000025, Cyproconazole 0.000025, Tebuconazole 0.000025, Trifloxystrobin 0.0001, Pyraclostrobin 0.0001, Fluazinam 0.0063, Fluxapyroxad 0.000025, Prothioconazole 0.000025, Florylpicoxamid 0.0001, Benzovindiflupyr 0.000025, Mancozeb 0.0063 ppm.

Setting [5] is: Table 16, component (II) alone (component (I): None): Inpyrfluxam 0.000025, Chlorothalonil 0.006, Thiophanate-methyl 0.0001, Tebuconazole 0.000025, Trifloxystrobin 0.0001, Fluazinam 0.006, Prothioconazole 0.000025, Florylpicoxamid 0.0001, Metominostrobin 0.0004 ppm.
[6] abbreviates: Table 17, component (II) alone (component (I): None): Inpyrfluxam 0.000026, Chlorothalonil 0.02, Thiophanate-methyl 0.0004, Tebuconazole 0.0001, Trifloxystrobin 0.0001, Fluazinam 0.006, Prothioconazole 0.000025, Florylpicoxamid 0.0001, Metominostrobin 0.0004 ppm.
The mark [7] stands for this setting: Table 18, component (II) alone (component (I): None): Azoxystrobin 0.0001, Inpyrfluxam 0.000025, Chlorothalonil 0.0063, Difenoconazole 0.000025, Cyproconazole 0.000025, Tebuconazole 0.000025, Trifloxystrobin 0.0001, Pyraclostrobin 0.0001, Fluazinam 0.0063, Fluxapyroxad 0.000025, Prothioconazole 0.000025, Florylpicoxamid 0.0001, Benzovindiflupyr 0.000025, Mancozeb 0.0063 ppm.

Where [8] appears, read: Zymoseptoria tritici, component (II) alone, 0.02 ppm, read-out: growth inhibition rate.
Where [9] appears, read: Zymoseptoria tritici, component (II) alone, read-out: growth inhibition rate.
[10] abbreviates: Zymoseptoria tritici, component (II) alone, 1 ppm, read-out: growth inhibition rate.

With `N#Cc1c(Cl)c(Cl)c(Cl)c(C#N)c1Cl` [Chlorothalonil, chlorothalonil, reference compound], the control value is given as 44% in assay [1] (setting [3]); 33% in assay [1] (setting [4]); 44% in assay [1] (setting [5]); 75% in assay [1] (setting [6]); 0% in assay [1] (setting [7]). Moreover, the inhibition at 0.001 ppm in assay [2] (Zymoseptoria tritici, component (II) alone, 0.001 ppm, read-out: growth inhibition rate) was 8%. The inhibition at 0.02 ppm in assay [2] (setting [8]) turned out to be 2%. The inhibition at 0.04 ppm in assay [2] (Zymoseptoria tritici, component (II) alone, 0.04 ppm, read-out: growth inhibition rate) was found to be 9%.

For mancozeb, the control value in assay [1] (setting [4]) and in assay [1] (setting [7]) was 0% throughout. Besides, the growth inhibition rate stood at 9% in assay [2] (component (II) alone, 0.004 ppm); 19% in assay [2] (component (II) alone, 0.02 ppm); 19% in assay [2] (component (II) alone, 0.06 ppm).

As for `CON=C(C(=O)OC)c1ccccc1CON=C(C)c1cccc(C(F)(F)F)c1` [Trifloxystrobin, trifloxystrobin, reference compound], the control value is recorded as 16% in assay [1] (setting [3]); 0% in assay [1] (setting [4]); 16% in assay [1] (setting [5]); 16% in assay [1] (setting [6]); 75% in assay [1] (setting [7]); 50% in assay [1] (component (II) alone, 0.0004 ppm). Further, in assay [2] (setting [9]), the inhibition at 0.25 ppm was 21%.

In the case of `Cn1cc(C(=O)Nc2ccccc2-c2cc(F)c(F)c(F)c2)c(C(F)F)n1` [Fluxapyroxad, fluxapyroxad], the control value in assay [1] (setting [4]) is listed as 0%; in assay [1] (setting [7]), 75%. The growth inhibition rate in assay [2] (component (II) alone, 0.001 ppm) came to 32%; in assay [2] (component (II) alone, 0.02 ppm), 63%; in assay [2] (component (II) alone, 1 ppm) it was 86%.

`O=[N+]([O-])c1cc(C(F)(F)F)c(Cl)c([N+](=O)[O-])c1Nc1ncc(C(F)(F)F)cc1Cl` [Fluazinam, fluazinam, reference compound]: the control value in assay [1] (setting [3]) was 16%; in assay [1] (setting [4]), 0%; in assay [1] (setting [5]) it was 16%; in assay [1] (setting [6]), 16%; in assay [1] (setting [7]), 50%. The inhibition at 0.004 ppm in assay [2] (Zymoseptoria tritici, component (II) alone, 0.004 ppm, read-out: growth inhibition rate) worked out at 0%.

`OC(Cc1ccccc1Cl)(Cn1nc[nH]c1=S)C1(Cl)CC1` (centres unmarked) [Prothioconazole, prothioconazole, reference compound]: the control value is on record as 44% in assay [1] (setting [3]); 33% in assay [1] (setting [4]); 44% in assay [1] (setting [5]); 44% in assay [1] (setting [6]); 50% in assay [1] (setting [7]). The inhibition at 0.02 ppm in assay [2] (setting [8]) was determined as 10%. Moreover, the inhibition at 0.25 ppm in assay [2] (setting [9]) came to 7%. The inhibition at 1 ppm in assay [2] (setting [10]) is 8%.

Take `O=C(Cc1ccc(-c2noc(C(F)(F)F)n2)cc1)N1CC(=NOCC(F)F)C1` [Compound 4]: the control value amounted to 18% in assay [1] (component (I) alone, 0.0063 ppm); 28% in assay [1] (component (I) alone, 0.025 ppm); 67% in assay [1] (component (I) alone, 0.1 ppm); 97% in assay [1] (component (I) alone, 0.4 ppm). For the same molecule, the inhibition at 6.3 ppm in assay [2] (Zymoseptoria tritici, component (I) alone, 6.3 ppm, read-out: growth inhibition rate) turned out to be 36%. Also, the inhibition at 12.5 ppm in assay [2] (Zymoseptoria tritici, component (I) alone, 12.5 ppm, read-out: growth inhibition rate) was 49%. Further, the inhibition at 25 ppm in assay [2] (Zymoseptoria tritici, component (I) alone, 25 ppm, read-out: growth inhibition rate) was found to be 75%. The inhibition at 50 ppm in assay [2] (Zymoseptoria tritici, component (I) alone, 50 ppm, read-out: growth inhibition rate) is 99%. In addition, the inhibition at 100 ppm in assay [2] (Zymoseptoria tritici, component (I) alone, 100 ppm, read-out: growth inhibition rate) came to 100%.

`COC(=O)N(OC)c1ccccc1COc1ccn(-c2ccc(Cl)cc2)n1` [Pyraclostrobin, pyraclostrobin, reference compound]: the results for the control value in assay [1] (setting [4]) and in assay [1] (setting [7]) were 33% and 0%, respectively. In addition, the inhibition at 0.02 ppm in assay [2] (setting [8]) was 24%. Also, the inhibition at 0.25 ppm in assay [2] (setting [9]) was 86%.

As to `CC(C)(C)C(O)(CCc1ccc(Cl)cc1)Cn1cncn1` (centres unmarked) [Tebuconazole, tebuconazole, reference compound], the control value in assay [1] (setting [3]) turned out to be 44%; in assay [1] (setting [4]), 33%; in assay [1] (setting [5]), 44%; in assay [1] (setting [6]) it was 86%; in assay [1] (setting [7]), 33%. Besides, the inhibition at 0.016 ppm in assay [2] (Zymoseptoria tritici, component (II) alone, 0.016 ppm, read-out: growth inhibition rate) stood at 0%. In addition, the inhibition at 0.063 ppm in assay [2] (Zymoseptoria tritici, component (II) alone, 0.063 ppm, read-out: growth inhibition rate) is 33%. Moreover, the inhibition at 64 ppm in assay [2] (Zymoseptoria tritici, component (II) alone, 64 ppm, read-out: growth inhibition rate) turned out to be 76%.

In the case of `CC(C1CC1)C(O)(Cn1cncn1)c1ccc(Cl)cc1` (centres unmarked) [Cyproconazole, cyproconazole, reference compound], the control value in assay [1] (setting [4]) worked out at 33%; in assay [1] (setting [7]), 0%; in assay [1] (component (II) alone, 0.0001 ppm), 88%. The inhibition at 0.25 ppm in assay [2] (setting [9]) is 15%. Also, the inhibition at 1 ppm in assay [2] (setting [10]) stood at 1%.
